US8999970B2, “Administration of an anti-obesity compound to individuals with renal impairment” (Arena Pharmaceuticals, Inc., priority 2010, dated 2015)
Several values for one entry are separate records, joined by “and”; a condition that tells them apart may be missing. Equal entries are not always repeated.

Experiment: Clinical trial APD356-016: plasma and urine pharmacokinetics of lorcaserin, M1 and M5 after a 10 mg dose in subjects with renal impairment
Conditions: Severe Renal Impairment Not Receiving Dialysis; for Plasma Concentration of HSO3-APD356 Metabolite, Max: group Max; for Plasma Concentration of HSO3-APD356 Metabolite, Max / Plasma Concentration of HSO3-APD356 Metabolite, Mean / Plasma Concentration of HSO3-APD356 Metabolite, Median / Plasma Concentration of HSO3-APD356 Metabolite, Min: N 8; for Plasma Concentration of HSO3-APD356 Metabolite, Mean: group Mean; for Plasma Concentration of HSO3-APD356 Metabolite, Median: group Median; for Plasma Concentration of HSO3-APD356 Metabolite, Min: group Min; for Plasma Concentration of HSO3-APD356 Metabolite: individual subject
Description: The interaction of renal insufficiency with the pharmacokinetics, tolerability and safety of lorcaserin were evaluated in a formal PK study in subjects with renal impairment and in the populations studied in phase 2 and phase 3 clinical studies.
The pharmacokinetic properties of lorcaserin in subjects with varying degrees of renal impairment were evaluated in clinical trial APD356-016. At the time of study conduct and analysis, subjects were assigned to renal impairment groups based on creatinine clearance calculated using IDEAL body weight (Table 1). This calculation was used to avoid overestimation of creatinine clearance due to the excess body weight (overweight and obese subjects were enrolled in the trial). Summaries of pharmacokinetic properties by group assignment using creatinine clearance calculated using ACTUAL body weights are also provided in the sections that follow.
The FDA expects a reasonable margin between anticipated exposures and exposures that may produce toxicity. A reasonable margin can vary depending on the expected toxicity, but generally is an order of magnitude (10 times), but can sometimes be less for mild toxicity.
Table 13. Summary of Plasma Concentrations (ng/mL) of HSO3-APD356 Metabolite over Time by Group: Severe Renal Impairment Not Receiving Dialysis (see Table 13 next page)
Subject number 3140-505 was on dialysis and grouped in the end stage renal disease group.

C[C@H]1CN(S(=O)(=O)O)CCc2ccc(Cl)cc21 [HSO3-APD356 Metabolite]
Plasma Concentration of HSO3-APD356 Metabolite, Max (Day 1 0.5 h): 182 ng/mL
Plasma Concentration of HSO3-APD356 Metabolite, Max (Day 1 1 h): 319 ng/mL
Plasma Concentration of HSO3-APD356 Metabolite, Max (Day 1 2 h): 489 ng/mL
Plasma Concentration of HSO3-APD356 Metabolite, Max (Day 1 3 h): 468 ng/mL
Plasma Concentration of HSO3-APD356 Metabolite, Max (Day 1 4 h): 542 ng/mL
Plasma Concentration of HSO3-APD356 Metabolite, Max (Day 1 6 h): 445 ng/mL
Plasma Concentration of HSO3-APD356 Metabolite, Max (Day 1 8 h): 473 ng/mL
Plasma Concentration of HSO3-APD356 Metabolite, Max (Day 1 12 h): 439 ng/mL
Plasma Concentration of HSO3-APD356 Metabolite, Max (Day 1 16 h): 410 ng/mL
Plasma Concentration of HSO3-APD356 Metabolite, Max (Day 1 Predose): 9.00 ng/mL
Plasma Concentration of HSO3-APD356 Metabolite, Max (Day 2 24 h): 406 ng/mL
Plasma Concentration of HSO3-APD356 Metabolite, Max (Day 2 36 h): 336 ng/mL
Plasma Concentration of HSO3-APD356 Metabolite, Max (Day 3 48 h): 292 ng/mL
Plasma Concentration of HSO3-APD356 Metabolite, Max (Day 4 72 h): 248 ng/mL
Plasma Concentration of HSO3-APD356 Metabolite, Max (Day 5 96 h): 225 ng/mL
Plasma Concentration of HSO3-APD356 Metabolite, Max (Day 6 120 h): 212 ng/mL
Plasma Concentration of HSO3-APD356 Metabolite, Mean (Day 1 0.5 h): 25.7 ng/mL
Plasma Concentration of HSO3-APD356 Metabolite, Mean (Day 1 1 h): 50.6 ng/mL
Plasma Concentration of HSO3-APD356 Metabolite, Mean (Day 1 2 h): 83.2 ng/mL
Plasma Concentration of HSO3-APD356 Metabolite, Mean (Day 1 3 h): 86.8 ng/mL
Plasma Concentration of HSO3-APD356 Metabolite, Mean (Day 1 4 h): 99.5 ng/mL
Plasma Concentration of HSO3-APD356 Metabolite, Mean (Day 1 6 h): 86.7 ng/mL
Plasma Concentration of HSO3-APD356 Metabolite, Mean (Day 1 8 h): 88.9 ng/mL
Plasma Concentration of HSO3-APD356 Metabolite, Mean (Day 1 12 h): 84.3 ng/mL
Plasma Concentration of HSO3-APD356 Metabolite, Mean (Day 1 16 h): 76.8 ng/mL
Plasma Concentration of HSO3-APD356 Metabolite, Mean (Day 1 Predose): 1.13 ng/mL
Plasma Concentration of HSO3-APD356 Metabolite, Mean (Day 2 24 h): 84.4 ng/mL
Plasma Concentration of HSO3-APD356 Metabolite, Mean (Day 2 36 h): 73.9 ng/mL
Plasma Concentration of HSO3-APD356 Metabolite, Mean (Day 3 48 h): 68.1 ng/mL
Plasma Concentration of HSO3-APD356 Metabolite, Mean (Day 4 72 h): 58.3 ng/mL
Plasma Concentration of HSO3-APD356 Metabolite, Mean (Day 5 96 h): 53.8 ng/mL
Plasma Concentration of HSO3-APD356 Metabolite, Mean (Day 6 120 h): 49.2 ng/mL
Plasma Concentration of HSO3-APD356 Metabolite, Median (Day 1 0.5 h): 1.33 ng/mL
Plasma Concentration of HSO3-APD356 Metabolite, Median (Day 1 1 h): 12.6 ng/mL
Plasma Concentration of HSO3-APD356 Metabolite, Median (Day 1 2 h): 24.5 ng/mL
Plasma Concentration of HSO3-APD356 Metabolite, Median (Day 1 3 h): 27.5 ng/mL
Plasma Concentration of HSO3-APD356 Metabolite, Median (Day 1 4 h): 31.6 ng/mL
Plasma Concentration of HSO3-APD356 Metabolite, Median (Day 1 6 h): 32.8 ng/mL
Plasma Concentration of HSO3-APD356 Metabolite, Median (Day 1 8 h): 29.5 ng/mL
Plasma Concentration of HSO3-APD356 Metabolite, Median (Day 1 12 h): 28.9 ng/mL
Plasma Concentration of HSO3-APD356 Metabolite, Median (Day 1 16 h): 28.1 ng/mL
Plasma Concentration of HSO3-APD356 Metabolite, Median (Day 1 Predose): 0.00 ng/mL
Plasma Concentration of HSO3-APD356 Metabolite, Median (Day 2 24 h): 32.5 ng/mL
Plasma Concentration of HSO3-APD356 Metabolite, Median (Day 2 36 h): 35.5 ng/mL
Plasma Concentration of HSO3-APD356 Metabolite, Median (Day 3 48 h): 33.8 ng/mL
Plasma Concentration of HSO3-APD356 Metabolite, Median (Day 4 72 h): 31.6 ng/mL
Plasma Concentration of HSO3-APD356 Metabolite, Median (Day 5 96 h): 31.3 ng/mL
Plasma Concentration of HSO3-APD356 Metabolite, Median (Day 6 120 h): 27.5 ng/mL
Plasma Concentration of HSO3-APD356 Metabolite, Min (Day 1 0.5 h): 0.00 ng/mL
Plasma Concentration of HSO3-APD356 Metabolite, Min (Day 1 1 h): 0.00 ng/mL
Plasma Concentration of HSO3-APD356 Metabolite, Min (Day 1 2 h): 6.08 ng/mL
Plasma Concentration of HSO3-APD356 Metabolite, Min (Day 1 3 h): 17.6 ng/mL
Plasma Concentration of HSO3-APD356 Metabolite, Min (Day 1 4 h): 25.4 ng/mL
Plasma Concentration of HSO3-APD356 Metabolite, Min (Day 1 6 h): 26.1 ng/mL
Plasma Concentration of HSO3-APD356 Metabolite, Min (Day 1 8 h): 25.8 ng/mL
Plasma Concentration of HSO3-APD356 Metabolite, Min (Day 1 12 h): 25.4 ng/mL
Plasma Concentration of HSO3-APD356 Metabolite, Min (Day 1 16 h): 18.0 ng/mL
Plasma Concentration of HSO3-APD356 Metabolite, Min (Day 1 Predose): 0.00 ng/mL
Plasma Concentration of HSO3-APD356 Metabolite, Min (Day 2 24 h): 27.1 ng/mL
Plasma Concentration of HSO3-APD356 Metabolite, Min (Day 2 36 h): 27.8 ng/mL
Plasma Concentration of HSO3-APD356 Metabolite, Min (Day 3 48 h): 25.8 ng/mL
Plasma Concentration of HSO3-APD356 Metabolite, Min (Day 4 72 h): 19.7 ng/mL
Plasma Concentration of HSO3-APD356 Metabolite, Min (Day 5 96 h): 15.1 ng/mL
Plasma Concentration of HSO3-APD356 Metabolite, Min (Day 6 120 h): 12.3 ng/mL
Plasma Concentration of HSO3-APD356 Metabolite (Day 1 0.5 h): 182 ng/mL and 2.66 ng/mL and 8.54 ng/mL and 0.00 ng/mL (2×) and 12.2 ng/mL
Plasma Concentration of HSO3-APD356 Metabolite (Day 1 1 h): 319 ng/mL and 22.8 ng/mL and 18.0 ng/mL and 0.00 ng/mL and 31.4 ng/mL and 4.30 ng/mL
Plasma Concentration of HSO3-APD356 Metabolite (Day 1 2 h): 489 ng/mL and 42.2 ng/mL and 25.1 ng/mL and 6.08 ng/mL and 53.2 ng/mL and 13.3 ng/mL
Plasma Concentration of HSO3-APD356 Metabolite (Day 1 3 h): 468 ng/mL and 52.4 ng/mL and 26.5 ng/mL and 17.6 ng/mL and 55.6 ng/mL and 20.9 ng/mL
Plasma Concentration of HSO3-APD356 Metabolite (Day 1 4 h): 542 ng/mL and 53.3 ng/mL and 28.2 ng/mL and 28.6 ng/mL and 55.1 ng/mL and 25.4 ng/mL
Plasma Concentration of HSO3-APD356 Metabolite (Day 1 6 h): 445 ng/mL and 51.9 ng/mL and 32.2 ng/mL and 29.8 ng/mL and 46.5 ng/mL and 26.1 ng/mL
Plasma Concentration of HSO3-APD356 Metabolite (Day 1 8 h): 473 ng/mL and 49.7 ng/mL and 27.8 ng/mL and 29.2 ng/mL and 50.4 ng/mL and 25.8 ng/mL
Plasma Concentration of HSO3-APD356 Metabolite (Day 1 12 h): 439 ng/mL and 45.9 ng/mL and 27.2 ng/mL and 27.3 ng/mL and 52.2 ng/mL and 25.4 ng/mL
Plasma Concentration of HSO3-APD356 Metabolite (Day 1 16 h): 410 ng/mL and 46.9 ng/mL and 28.1 ng/mL and 27.5 ng/mL and 18.0 ng/mL and 28.0 ng/mL and 30.6 ng/mL
Plasma Concentration of HSO3-APD356 Metabolite (Day 1 Predose): 0.00 ng/mL (6×) and 9.00 ng/mL
Plasma Concentration of HSO3-APD356 Metabolite (Day 2 24 h): 406 ng/mL and 51.1 ng/mL and 33.0 ng/mL and 31.9 ng/mL and 62.4 ng/mL and 31.6 ng/mL and 32.0 ng/mL
Plasma Concentration of HSO3-APD356 Metabolite (Day 2 36 h): 336 ng/mL and 45.5 ng/mL and 40.4 ng/mL and 30.6 ng/mL (2×) and 52.2 ng/mL and 28.4 ng/mL
Plasma Concentration of HSO3-APD356 Metabolite (Day 3 48 h): 292 ng/mL and 47.2 ng/mL and 34.3 ng/mL and 31.0 ng/mL and 54.2 ng/mL and 33.3 ng/mL
Plasma Concentration of HSO3-APD356 Metabolite (Day 4 72 h): 248 ng/mL and 40.2 ng/mL and 33.0 ng/mL and 27.9 ng/mL and 46.2 ng/mL and 30.2 ng/mL
Plasma Concentration of HSO3-APD356 Metabolite (Day 5 96 h): 225 ng/mL and 36.0 ng/mL and 30.2 ng/mL and 28.5 ng/mL and 43.8 ng/mL and 32.3 ng/mL
Plasma Concentration of HSO3-APD356 Metabolite (Day 6 120 h): 212 ng/mL and 30.4 ng/mL and 26.3 ng/mL and 25.2 ng/mL and 40.1 ng/mL and 28.6 ng/mL
